Laboratory results as given in patent US20250188417A1, “CARDIOMYOCYTES AND COMPOSITIONS AND METHODS FOR PRODUCING THE SAME” (President and Fellows of Harvard College, priority 2021, published 2025).

Key:
Gibco iPS-CM = experiment: Western blot of p53 after Torin1 treatment; assay type: cell-based, human; conditions: Torin1 10, 50 or 200 nM for 7 days
Method: (§1) FIG. 14A provides representative western blot of p53, phospho-53, p21 (CDKN1a), GATA4, NKX2.5, and β-tubulin from Gibco iPS-CM lysates treated with 0 (DMSO), 10, 50, or 200 nM Torin1 for 7 days starting ˜2 days after onset of beating. Cells harvested on final day of treatment. FIG. 14B provides cell cycle analysis showing percentage of TNNT2+ BJRiPS-CMs in G0, G1 or S/G2/M phases after treatment with vehicle (DMSO, dimethylsulfoxide), pifithrin-α (10 μM) for 1 week, Torin1 (200 nM) for 7 days or simultaneous treatment with pifithrin-α (10 μM) and Torin1 (200 nM) for 7 days starting ˜2 days after onset of beating. n=3 per group, *p<0.05, **p<0.01, ***p<0.001, ****p<0.0001 by two-way ANOVA with Tukey's multiple comparisons test. FIG. 14C provides representative western blot of p53, TNNI3, p21, and β-tubulin from BJRiPS-derived cardiomyocyte lysates treated with control (DMSO), Torin1 (200 nM), pifithrin-α (10 PM) or Torin1 (200 nM)+pifithrin-α (10 μM) for 7 days beginning ˜2 days after onset of beating. Cells harvested on final day of treatment.

[1] = system: iPSC-derived cardiomyocytes; experiment: Muscular thin film (MTF) contractility; assay type: cell-based, human; conditions: Torin1 200 nM for 7 days; muscular thin films
Method: (§2) FIG. 11A provides qPCR of selected sarcomere genes (MYH6, MYH7, TNNT2, TNNI3) iPSC-derived cardiomyocytes after treatment with Torin1 (10 nM, 50 nM, or 200 nM) or vehicle control (0.02% DMSO) for 7 days starting ˜2 days after onset of beating. n=3 per condition, *p<0.05, ****p<0.001 by two-way ANOVA with Tukey's multiple comparisons test, BJRiPS-CMs. FIG. 11B provides representative of western blot analysis of TNNT2 and TNNI3 after Torin1 treatment for 7 days starting ˜2 days after onset of beating, β-tubulin depicted as loading control, Gibco iPS-CMs. […] FIG. 11D provides representative image of MTF in diastole and systole, with schematic of MTF on side view in diastole and systole. FIG. 11E provides representative force versus time plot of muscular thin film (MTF) seeded with iPSC-derived cardiomyocytes treated with Torin1 (200 nM) or vehicle for 7 days starting ˜2 days after onset of beating, BJRiPS-CMs. […] FIG. 11G provides representative immunostained images showing cardiomyocytes treated with or without Torin1 (200 nM×7 days), blue=DAPI, green=alpha-actinin, yellow=F-actin, magenta=TNNT2, BJRiPS-CMs, scale bar=10 μm. […] DMSO, dimethylsulfoxide; TBP, TATA-binding protein.

[2] = system: iPSC-derived cardiomyocytes (CMs); experiment: Quiescence, cell cycle and TNNT2+ flow cytometry after Torin1 treatment; assay type: cell-based, human
Method: FIG. 10A provides a schematic of a differentiation protocol, with Torin1 treatment performed for 7 days starting ˜2 days after onset of beating, unless otherwise noted. FIG. 10B provides a western analysis of phospho-S6 and phospho-Akt at baseline and 30 minutes, and 2, 4, 10, 24, and 48 hours after a single treatment of iPSC-derived CMs with Torin1 (200 nM), BJRiPS-CMs. […] Torin1 treatment started on day 9, approximately 2 days after onset of CM beating, BJRiPS-CMs, n=3 per group per time point. […] DMSO, dimethylsulfoxide; IWP-4, inhibitor of Wnt production-4; RI, ROCK (Rho-associated, coiled coil containing protein kinase) inhibitor (Y-27632); RPMI, Roswell Park Memorial Institute 1640 medium.

BJRiPS-CMs [3] = experiment: Mitochondrial polarization (MitoProbe JC-1); assay type: cell-based, human; conditions: Torin1 200 nM for 7 days
PSC-CMs = conditions: inhibition of mTOR signaling during late differentiation; previously suggested; cited from earlier work
UCSD-CMs = experiment: FluoVolt action potential profile; assay type: cell-based, human
Method: FIG. 13A provides qPCR of selected ion channels (KCNJ2, CACNA1c, RY2, ATP2a2, SCN5a, HCN4) of iPSC-derived cardiomyocytes after treatment with Torin1 (10 nM or 200 nM) or vehicle control (0.02% DMSO) for 7 days starting ˜2 days after onset of beating. n=3 per group, *p<0.05, ****p<0.001 by two-way ANOVA with Tukey's multiple comparisons test, BJRiPS line. FIG. 13B provides flow cytometry analysis of mean fluorescence intensity of Kir2.1 (encoded by KCNJ2) after Torin1 treatment for 7 days starting ˜2 days after onset of beating. n=3 per group, *p<0.01 by unpaired t-test, BJRiPS line. […] FIG. 13D provides representative images showing cell segmentation performed automatically by the CyteSeer software. Blue=Hoechst stain, Green=FluoVolt. […] CTD25 (25% duration of the calcium transient, or duration at 25% decline from maximum amplitude), CTD75 (75% duration of the calcium transient, or duration at 75% decline from maximum amplitude), T75-25 (time for voltage to decay from 75% to 25% of maximum). […] For Fluovolt data, control n=531 cells, Torin1 n=315 cells, analysis by unpaired t-test.

BJRiPS-CMs [4] = experiment: qPCR of sarcomere genes and ion channels after Torin1 treatment; assay type: cell-based, human
Method: FIG. 11A provides qPCR of selected sarcomere genes (MYH6, MYH7, TNNT2, TNNI3) iPSC-derived cardiomyocytes after treatment with Torin1 (10 nM, 50 nM, or 200 nM) or vehicle control (0.02% DMSO) for 7 days starting ˜2 days after onset of beating. n=3 per condition, *p<0.05, ****p<0.001 by two-way ANOVA with Tukey's multiple comparisons test, BJRiPS-CMs. FIG. 11B provides representative of western blot analysis of TNNT2 and TNNI3 after Torin1 treatment for 7 days starting ˜2 days after onset of beating, β-tubulin depicted as loading control, Gibco iPS-CMs. […] FIG. 11D provides representative image of MTF in diastole and systole, with schematic of MTF on side view in diastole and systole. […]
FIG. 13A provides qPCR of selected ion channels (KCNJ2, CACNA1c, RY2, ATP2a2, SCN5a, HCN4) of iPSC-derived cardiomyocytes after treatment with Torin1 (10 nM or 200 nM) or vehicle control (0.02% DMSO) for 7 days starting ˜2 days after onset of beating. n=3 per group, *p<0.05, ****p<0.001 by two-way ANOVA with Tukey's multiple comparisons test, BJRiPS line. FIG. 13B provides flow cytometry analysis of mean fluorescence intensity of Kir2.1 (encoded by KCNJ2) after Torin1 treatment for 7 days starting ˜2 days after onset of beating. n=3 per group, *p<0.01 by unpaired t-test, BJRiPS line. […]

BJRiPS-CMs [5] = experiment: Seahorse Mito Stress Test oxygen consumption rate; assay type: cell-based, human; conditions: Torin1 200 nM×7 days; normalized to baseline
Method: FIG. 12A provides a profile of average oxygen consumption rate normalized to baseline versus time as evaluated by the Seahorse Mito Stress Test. Open circles=control (n=70 wells), closed squares=Torin1 (69 wells, 200 nM×7 days; BJRiPS-CMs replated into Seahorse plate for 24-48 hours prior to assay), data from two independent experiments combined. […] FIG. 12F provides qPCR of selected genes associated with fatty acid metabolism (PPARGC1a (PGC1α), CD36, SLC27A1 (FATP1), SLC27A6 (FATP6), and LPIN1) or glucose metabolism (GLUT1, GLUT4, PFK, and PYGM) of BJRiPS-CMs after treatment with Torin1 (10 nM, 50 nM, or 200 nM) or vehicle control (0.02% DMSO) for 7 days starting ˜2 days after onset of beating. *p<0.05, **p<0.01, ***p<0.001, ****p<0.0001 by two-way ANOVA with Tukey's multiple comparison's test, n=3 per group. DMSO, dimethylsulfoxide; FCCP, 2-[2-[4-(trifluoromethoxy)phenyl]hydrazinylidene]-propanedinitrile.

BJRiPS-CMs [6] = experiment: Sarcomere length by immunostaining; assay type: cell-based, human; conditions: Torin1 200 nM×7 days versus control; unpaired t-test; FIG. 11H
Method: as §2

iPSC-CMs = experiment: Flow cytometry of marker expression and live cells in iPSC-CMs treated in 3D culture; assay type: cell-based, human
Method: The UCSD142i-86-1 cell line was used to generate preliminary data. UCSD142i-86-1 cells were differentiated into cardiomyocytes according to previously published protocols (9) adapted to three-dimensional culture in the laboratory. Two days after onset of beating (around day 9 of differentiation), cardiomyocytes were treated with vehicle (DMSO) or different concentrations of quercetin for different time periods. Cells were harvested for qPCR, western, or flow cytometry at different time points.

BJRiPS-CMs [7] = experiment: Western blot and densitometry (MDM2, p53, TNNI3) and cell cycle analysis of BJRiPS-derived cardiomyocytes; assay type: cell-based, human
Method: FIG. 6A provides a schematic showing proposed mechanism of cardiomyocyte maturation. T3, triiodothyronine. […] FIG. 6C provides representative Western blot of MDM2, p53, TNNI3, and β-tubulin from BJRiPS-derived cardiomyocyte lysates treated with control (DMSO), nutlin-3a Å˜24 hours (10 μmol/L), Torin1 Å˜7 days (200 nmol/L), or Torin1 Å˜7 days (200 nmol/L)+nutlin-3a (10 μmol/L) for 24 hours beginning ≈2 days after onset of beating (nutlin-3a was only administered during the first 24 hours of Torin1 treatment). Cells harvested on final day of treatment, BJRiPS-CMs. […] DMSO indicates dimethylsulfoxide; mTOR, mechanistic target of rapamycin; and TNNT2+ BJRiPS-CMs, troponin T2, cardiac type-positive BJ fibroblast-derived RNA-induced pluripotent stem cell-derived cardiomyocytes.
as §1

cardiomyocytes = experiment: Flow cytometry in 2D culture (TNNT2, MitoTracker Red CMXRos, superoxide signal); assay type: cell-based, human; conditions: FACS, FIG. 8
Text: FACS N=3/group, MitoTracker Red CMXRos flow cytometry, 1-way ANOVA with Tukey's multiple comparisons test.
Reactive oxygen species may regulate cardiomyocyte maturation. FACS, n=3/group.

[8] = treatment of iPSC-CMs in 3D culture

CCC(=O)N1CCN(c2ccc(-n3c(=O)ccc4cnc5ccc(-c6cnc7ccccc7c6)cc5c43)cc2C(F)(F)F)CC1 [Torin1]
p53 expression (Gibco iPS-CM): increases | contractility [1]: enhances | cellular quiescence ([2]; Torin1 for 7 days starting about 2 days after onset of beating): increases | percentage of TNNT2+ CMs out of live cell population ([2]; flow cytometry, Gibco iPS-CMs, one-way ANOVA, FIG. 10D): n.s. | mitochondrial polarization (BJRiPS-CMs [3]): increases | cellular quiescence (PSC-CMs): induces | maturation of cardiomyocytes (PSC-CMs): enhances | peak rise time of the action potential profile (UCSD-CMs; FluoVolt, FIG. 13F): increases | downstroke velocity of the action potential profile (UCSD-CMs; FluoVolt, FIG. 13G): increases | CTD25 time (UCSD-CMs; FluoVolt, versus control, unpaired t-test, FIG. 13H): n.s. | plateau phase of the action potential profile (UCSD-CMs; representative profile versus control, FIG. 13E): more prolonged | expression selected ion channels (BJRiPS-CMs [4]; Torin1 10 nM or 200 nM for 7 days): increases | expression of sarcomere genes (MYH6, MYH7, TNNT2, TNNI3) (BJRiPS-CMs [4]; Torin1 10, 50 or 200 nM for 7 days): increases | oxygen consumption rate (BJRiPS-CMs [5]): increases | sarcomere length (BJRiPS-CMs [6]): n.s

COc1ccc(C2=N[C@@H](c3ccc(Cl)cc3)[C@@H](c3ccc(Cl)cc3)N2C(=O)N2CCNC(=O)C2)c(OC(C)C)c1 [nutlin-3a]
percentage of TNNT2+ iPSC-CMs (iPSC-CMs; 3D culture, flow cytometry, FIG. 2A): increases | mean fluorescence intensity (MFI) of TNNT2 (iPSC-CMs; 3D culture, flow cytometry, FIG. 2B): increases | % of TNNI3+ (iPSC-CMs; 3D culture, flow cytometry, FIG. 2C): increases | mean fluorescence intensity of TNNI3 (iPSC-CMs; 3D culture, flow cytometry, FIG. 2D): increases | percentage of TNNT2+ iPSC-CMs expressing Kir2.1 (iPSC-CMs; 3D culture, flow cytometry, FIG. 2E / FIG. 3A): increases | mean fluorescence intensity (MFI) of Kir2.1 (iPSC-CMs; 3D culture, flow cytometry, FIG. 2F / FIG. 3B): increases | % of p53+ TNNT2+ iPSC-CMs (iPSC-CMs; 3D culture, flow cytometry, FIG. 2G / FIG. 3C): increases | mean fluorescence intensity of p53 (iPSC-CMs; 3D culture, flow cytometry, FIG. 3D): increases | expression of Kir2.1 (iPSC-CMs; [8]): increases | expression of p53 (iPSC-CMs; [8]): increases | TNNI3 expression, effect together with Torin1 (BJRiPS-CMs [7]; nutlin-3a 10 μmol/L during first 24 hours of Torin1 200 nmol/L for 7 days): synergistic effect | p53 (Western analysis) (BJRiPS-CMs [7]; nutlin-3a 10 μmol/L for 24 hours): upregulation | TNNI3 expression (BJRiPS-CMs [7]; nutlin-3a 10 μmol/L for 24 hours, about 2 days after onset of beating, Western densitometry): enhances | mean fluorescence intensity of superoxide signal (cardiomyocytes): increases
